Where “and” joins values, the source holds several entries; their conditions need not be identical. Identical values can stand only once. Inconclusive results and toxic doses are left out.
Tested on: P388 leukemia ip, CD2F1 mice, survival T/C
Assay: NCI In Vivo Anticancer Drug Screen. Data for tumor model P388 Leukemia (intraperitoneal) in CD2F1 (CDF1) mice
Conditions: endpoint: median survival time, higher = longer survival
How it was run: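 Mice carrying the transplanted tumor received test compound or vehicle. Survival was recorded in each group, and the value is the treated-group measurement divided by that of the vehicle-treated control group.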

[1] = dose: 100.0 mg/kg/injection, schedule: Q04DX003 (ip), vehicle: saline
[2] = dose: 200.0 mg/kg/injection, schedule: Q04DX003 (ip), vehicle: saline
[3] = dose: 60.0 mg/kg/injection, schedule: Q01DX005 (ip), vehicle: saline with Tween-80
[4] = dose: 120.0 mg/kg/injection, schedule: Q01DX005 (ip), vehicle: saline with Tween-80
[5] = dose: 240.0 mg/kg/injection, schedule: Q01DX005 (ip), vehicle: saline with Tween-80
[6] = dose: 50.0 mg/kg/injection, schedule: Q01DX009 (ip), vehicle: saline
[7] = dose: 100.0 mg/kg/injection, schedule: Q01DX009 (ip), vehicle: saline
[8] = dose: 12.5 mg/kg/injection, schedule: Q01DX009 (ip), vehicle: saline with Tween-80
[9] = dose: 25.0 mg/kg/injection, schedule: Q01DX009 (ip), vehicle: saline with Tween-80
[10] = dose: 50.0 mg/kg/injection, schedule: Q01DX009 (ip), vehicle: saline with Tween-80
[11] = dose: 100.0 mg/kg/injection, schedule: Q01DX009 (ip), vehicle: saline with Tween-80
[12] = dose: 200.0 mg/kg/injection, schedule: Q01DX009 (ip), vehicle: saline with Tween-80
[13] = dose: 60.0 mg/kg/injection, schedule: Q01DX005 (ip), vehicle: Klucel (hydroxypropylcellulose) (HPC)
[14] = dose: 120.0 mg/kg/injection, schedule: Q01DX005 (ip), vehicle: Klucel (hydroxypropylcellulose) (HPC)
[15] = dose: 240.0 mg/kg/injection, schedule: Q01DX005 (ip), vehicle: Klucel (hydroxypropylcellulose) (HPC)
[16] = dose: 25.0 mg/kg/injection, schedule: Q04DX003 (ip), vehicle: saline with Tween-80
[17] = dose: 50.0 mg/kg/injection, schedule: Q04DX003 (ip), vehicle: saline with Tween-80
[18] = dose: 100.0 mg/kg/injection, schedule: Q04DX003 (ip), vehicle: saline with Tween-80

C[n+]1c(-c2cccc3ccccc23)c2cc([N+](=O)[O-])ccc2c2ccccc21
T/C (dose: 4.0 mg/kg/injection, schedule: Q01DX009 (ip), vehicle: Klucel (hydroxypropylcellulose) (HPC)): 114 % of control | T/C (dose: 8.0 mg/kg/injection, schedule: Q01DX009 (ip), vehicle: Klucel (hydroxypropylcellulose) (HPC)): 115 % of control | T/C (dose: 8.0 mg/kg/injection, schedule: Q04DX003 (ip), vehicle: Klucel (hydroxypropylcellulose) (HPC)): 98 % of control | T/C (dose: 16.0 mg/kg/injection, schedule: Q01DX009 (ip), vehicle: Klucel (hydroxypropylcellulose) (HPC)): 119 % of control | T/C (dose: 16.0 mg/kg/injection, schedule: Q04DX003 (ip), vehicle: Klucel (hydroxypropylcellulose) (HPC)): 108 % of control | T/C (dose: 32.0 mg/kg/injection, schedule: Q01DX009 (ip), vehicle: Klucel (hydroxypropylcellulose) (HPC)): 114 % of control | T/C (dose: 32.0 mg/kg/injection, schedule: Q04DX003 (ip), vehicle: Klucel (hydroxypropylcellulose) (HPC)): 114 % of control | T/C (dose: 64.0 mg/kg/injection, schedule: Q04DX003 (ip), vehicle: Klucel (hydroxypropylcellulose) (HPC)): 106 % of control

COC(=O)C1(C2CCCCCCCCCCC2=O)NC(=S)NC(=O)C1C#N (stereo not given)
T/C (dose: 60.0 mg/kg/injection, schedule: Q01DX005 (ip), vehicle: saline): 96 % of control | T/C (dose: 120.0 mg/kg/injection, schedule: Q01DX005 (ip), vehicle: saline): 92 % of control | T/C (dose: 240.0 mg/kg/injection, schedule: Q01DX005 (ip), vehicle: saline): 92 % of control

O=C1CSC(=S)N1c1cc(Cl)c(Cl)cc1Cl
T/C (dose: 50.0 mg/kg/injection, schedule: Q01DX009 (ip), vehicle: suspension in saline): 102 % of control | T/C (dose: 100.0 mg/kg/injection, schedule: Q01DX009 (ip), vehicle: suspension in saline): 100 % of control | T/C (dose: 200.0 mg/kg/injection, schedule: Q01DX009 (ip), vehicle: suspension in saline): 93 % of control

C1CC[C@H]2OCN[C@@H]2C1
T/C (dose: 200.0 mg/kg/injection, schedule: Q04DX002 (ip), vehicle: Klucel (hydroxypropylcellulose) (HPC)): 118 % of control | T/C (dose: 400.0 mg/kg/injection, schedule: Q04DX002 (ip), vehicle: Klucel (hydroxypropylcellulose) (HPC)): 115 % of control

CCCCC(NC(C)(C)C)c1ccccc1 (stereo not given)
T/C [1]: 97 % of control | T/C [2]: 101 % of control | T/C (dose: 400.0 mg/kg/injection, schedule: Q04DX003 (ip), vehicle: saline): 102 % of control

Nc1[nH]c(=S)ncc1-c1ccc(Cl)c(Cl)c1
T/C [3]: 94 % of control | T/C [4]: 93 % of control | T/C [5]: 88 % of control

CCN(CC)C(CC(=O)C(C)(C)C)=NCCCN1CCN(C)CC1
T/C [6]: 98 % of control | T/C [7]: 100 % of control

N=C(N)c1ccc(SCCCCCSc2ccc(C(=N)N)cc2)cc1
T/C (dose: 3.13 mg/kg/injection, schedule: Q01DX009 (ip), vehicle: saline with Tween-80): 117 % of control | T/C (dose: 6.25 mg/kg/injection, schedule: Q01DX009 (ip), vehicle: saline with Tween-80): 124 % of control | T/C [8]: 119 % of control

CC(=O)Nc1ccc(C)cc1C1SCCS1
T/C [9]: 90 % of control | T/C [10]: 105 % of control | T/C [11]: 97 % of control

c1ccc2c3c(ccc2c1)OCCOCCOCCOc1ccc2ccccc2c1-3
T/C (dose: 100.0 mg/kg/injection, schedule: Q01DX001 (ip), vehicle: saline with Tween-80): 98 % of control | T/C (dose: 200.0 mg/kg/injection, schedule: Q01DX001 (ip), vehicle: saline with Tween-80): 92 % of control | T/C (dose: 400.0 mg/kg/injection, schedule: Q01DX001 (ip), vehicle: saline with Tween-80): 87 % of control

[CH3][Ge]([CH3])=[O]
T/C [6]: 102 % of control | T/C [7]: 91 % of control | T/C (dose: 200.0 mg/kg/injection, schedule: Q01DX009 (ip), vehicle: saline): 100 % of control

O=C(NS(=O)(=O)c1ccc(Cl)cc1)c1ccccc1
T/C [8]: 102 % of control and 91 % of control | T/C [9]: 106 % of control | T/C [10]: 100 % of control and 94 % of control

C/C=C(\C)C(=O)N/N=C\c1ccc(O)cc1O
T/C [10]: 104 % of control | T/C [11]: 96 % of control | T/C [12]: 91 % of control

Brc1cc2c(cc1C=NC1CCCCC1)OCO2
T/C (dose: 100.0 mg/kg/injection, schedule: Q01DX001 (ip), vehicle: Klucel (hydroxypropylcellulose) (HPC)): 99 % of control | T/C (dose: 200.0 mg/kg/injection, schedule: Q01DX001 (ip), vehicle: Klucel (hydroxypropylcellulose) (HPC)): 101 % of control | T/C (dose: 400.0 mg/kg/injection, schedule: Q01DX001 (ip), vehicle: Klucel (hydroxypropylcellulose) (HPC)): 101 % of control

c1ccc2c(SCCCCCCCCCCCCSc3c4ccccc4nc4ccccc34)c3ccccc3nc2c1
T/C [13]: 104 % of control | T/C [14]: 98 % of control | T/C [15]: 90 % of control

Clc1ccc(C2=NC(c3ccccc3)/C(=C/c3ccccc3)S2)cc1 (stereo not given)
T/C [10]: 101 % of control | T/C [11]: 98 % of control | T/C [12]: 90 % of control

CN(C)c1ccc2c(Cl)cc(=O)[nH]c2c1
T/C [3]: 97 % of control | T/C [4]: 97 % of control | T/C [5]: 97 % of control

CN(C)C1C(O)C2Oc3c(cc(O)c4c3C(=O)c3cc5c(c(O)c3C4=O)C(NCCO)CC(C)(O)C5)C(C)(O2)C1O (stereo not given)
T/C (dose: 6.25 mg/kg/injection, schedule: Q01DX009 (ip), vehicle: other): 104 % of control | T/C (dose: 12.5 mg/kg/injection, schedule: Q01DX009 (ip), vehicle: other): 108 % of control | T/C (dose: 25.0 mg/kg/injection, schedule: Q01DX009 (ip), vehicle: other): 123 % of control | T/C (dose: 50.0 mg/kg/injection, schedule: Q01DX009 (ip), vehicle: other): 157 % of control | T/C (dose: 100.0 mg/kg/injection, schedule: Q01DX009 (ip), vehicle: other): 157 % of control

O=[N+]([O-])c1cc2[nH]cnc2c([N+](=O)[O-])c1N1CCOCC1
T/C [16]: 100 % of control | T/C [17]: 104 % of control | T/C [18]: 97 % of control

CN(C)S(=O)(=O)c1cccc(N)c1
T/C [16]: 93 % of control | T/C [17]: 95 % of control | T/C [18]: 100 % of control | T/C (dose: 200.0 mg/kg/injection, schedule: Q04DX003 (ip), vehicle: saline with Tween-80): 94 % of control

CCOc1ccccc1N=Nc1c(C)nn(C(=S)S)c1OCC
T/C (dose: 60.0 mg/kg/injection, schedule: Q01DX005 (ip), vehicle: Klucel + Tween-80): 97 % of control | T/C (dose: 120.0 mg/kg/injection, schedule: Q01DX005 (ip), vehicle: Klucel + Tween-80): 95 % of control | T/C (dose: 240.0 mg/kg/injection, schedule: Q01DX005 (ip), vehicle: Klucel + Tween-80): 100 % of control

NC(COC(c1ccccc1)(c1ccccc1)c1ccccc1)C(=O)O (stereo not given)
T/C [1]: 118 % of control | T/C [2]: 154 % of control

CC1C(=O)C23CC1CCC2C12COC(=O)C1C(C)(C)C(O)CC2OC3=O (stereo not given)
T/C (dose: 50.0 mg/kg/injection, schedule: Q04DX002 (ip), vehicle: saline with Tween-80): 113 % of control | T/C (dose: 100.0 mg/kg/injection, schedule: Q04DX002 (ip), vehicle: saline with Tween-80): 93 % of control | T/C (dose: 200.0 mg/kg/injection, schedule: Q04DX002 (ip), vehicle: saline with Tween-80): 112 % of control

Cc1cc(C)nc(/C=C/c2ccccc2)c1
T/C [3]: 104 % of control | T/C [4]: 105 % of control | T/C [5]: 106 % of control

O=c1[nH]cc(NS(=O)(=O)c2ccc([N+](=O)[O-])cc2)c(=O)[nH]1
T/C [13]: 101 % of control | T/C [14]: 103 % of control | T/C [15]: 108 % of control

COc1cccc(C(O)c2ccncc2C)c1OC (stereo not given)
T/C (dose: 12.5 mg/kg/injection, schedule: Q01DX009 (ip), vehicle: water): 100 % of control | T/C (dose: 25.0 mg/kg/injection, schedule: Q01DX009 (ip), vehicle: water): 99 % of control | T/C (dose: 50.0 mg/kg/injection, schedule: Q01DX009 (ip), vehicle: water): 100 % of control | T/C (dose: 100.0 mg/kg/injection, schedule: Q01DX009 (ip), vehicle: water): 99 % of control | T/C (dose: 200.0 mg/kg/injection, schedule: Q01DX009 (ip), vehicle: water): 99 % of control

From PubChem BioAssay AID330 (DTP/NCI, 2004)
